Measurements taken from US20170137818A1, “APTAMER INHIBITING BIOLOGICAL ACTIVITY OF AUTOTAXIN BY BINDING WITH AUTOTAXIN, AND USE THEREOF” (RIBOMIC INC., priority 2014, published 2017).

Tests used:
[1] = target: T1, autotaxin (Homo sapiens, UniProt Q13822); experiment: NPP2 inhibitory assay (pNP-TMP substrate); format: biochemical; details: mean of 2-3 measurements ± standard deviation
T1 construct: His; purchased R&D
Description: Whether an aptamer inhibits the enzyme activity of autotaxin can be evaluated, for example, by the following test. As a substrate of autotaxin, phosphodiester bond-containing synthetic substrate p-nitrophenyl thymidine 5′-monophosphate (pNP-TMP) (SIGMA) is used. A phosphodiester bond is cleaved by hydrolysis, and p-nitrophenol is liberated. The p-nitrophenol develops a yellow color, and the color is detected. For the assay, a 96-well plate (96-Well EIAsurasshuRIA Polystyrene Plates, Costar) was used, and the amount of the reaction mixture was 200 μL. Nucleic acid was prepared in solution A (see below-mentioned Example 1) (100 μL), pNP-TMP (20 μL) adjusted to 10 mM in the reaction mixture A was added, and the mixture was stirred well and heated at 37° C. for 5 min. On the other hand, 6 ng of autotaxin (Recombinant Human, manufactured by R&D) diluted with solution A was prepared (80 μL), and heated at 37° C. for 5 min. After heating, they were mixed to start an enzyme reaction. The final autotaxin concentration in the reaction solution was 0.3 nM, and the final substrate concentration was 1 mM. A plate containing the reaction mixture was heated at 37° C. for 24 hr, placed in a microplate reader SpectraMax190 (manufactured by Molecular Devices) and the absorbance was determined at wavelength 405 nm. The absorbance when nucleic acid is not added as 100% (A0), an enzyme activity rate was determined from the absorbance (A) of each test substance and according to the following formula.
Enzyme activity rate=(A/A0)×100
(§1) The concentration (IC50) of an inhibitor necessary for inhibiting the enzyme activity by 50% was determined.
Whether these nucleic acids show an autotaxin inhibitory activity was evaluated by the following method. As a substrate of autotaxin, phosphodiester bond-containing synthetic substrate p-nitrophenyl thymidine 5′-monophosphate (pNP-TMP) (SIGMA) was selected (hereinafter to be referred to as NPP2 inhibitory assay). A phosphodiester bond is cleaved by hydrolysis, and p-nitrophenol is liberated. The p-nitrophenol develops a yellow color, and the color is detected. For the assay, a 96-well plate (96-Well EIA/RIA Polystyrene Plates, Costar) was used, and the amount of the reaction mixture was 200 μL. As the reaction mixture, solution A was used. Nucleic acids were prepared in solution A (100 μL), pNP-TMP (20 μL) adjusted to 10 mM in the reaction mixture A was added, and the mixture was stirred well and heated at 37° C. for 5 min. On the other hand, 6 ng of autotaxin diluted with solution A was prepared (80 μL), and heated at 37° C. for 5 min. After heating, they were mixed to start enzyme reaction. The final autotaxin concentration in the reaction solution was 0.3 nM, and the final substrate concentration was 1 mM. A plate containing the reaction mixture was heated at 37° C. for 24 hr, placed in a microplate reader SpectraMax190 (manufactured by Molecular Devices) and the absorbance was determined at wavelength 405 nm. The absorbance when nucleic acids are not added as 100% (A0), an […] was determined from the absorbance (A) of each test substance and according to the following formula.
as §1

[2] = target: T1, autotaxin; experiment: Biacore surface plasmon resonance, autotaxin immobilized on CM4 chip, nucleic acid as analyte; format: binding; details: autotaxin immobilized about 2700 RU, nucleic acid 0.3 μM as analyte; maximum RU relative to SEQ ID NO: 12
Method: In another measurement method, an autotaxin is first immobilized on a sensorchip. The immobilization amount is set to about 2700 RU. An aptamer solution as an analyte prepared to 0.30 μM is injected by 20 μL, and binding of the aptamer to the autotaxin is detected.
All nucleic acids of SEQ ID NOs: 11-16 were produced by chemical synthesis. Whether these nucleic acids bind to autotaxin was evaluated by the surface plasmon resonance method. For the measurement, Biacore T100 manufactured by GE Healthcare was used, and the measurement was performed by the method shown below. About 2700 RU autotaxin was immobilized on a sensorchip surface of CM4 chip by using an amino coupling kit. The flow rate was 20 μL/min, and nucleic acids (20 μL) prepared to 0.3 μM were injected as an analyte. As a running buffer, solution A was used.

[3] = target: T1, autotaxin; experiment: LysoPLD inhibitory assay (14:0 LPC substrate, choline detection); format: biochemical
Description: As a substrate of autotaxin, 14:0 lysophosphatidylcholine (LPC, Avanti) was selected (hereinafter to be referred to as LysoPLD inhibitory assay). LPC is hydrolyzed by the lysophospholipase D activity of autotaxin and decomposed into lysophosphatidic acid (LPA) and choline. Choline is oxidized by choline oxidase to afford hydrogen peroxide. In the presence of the hydrogen peroxide and peroxidase, N-ethyl-N-(2-hydroxy-3-sulfopropyl)-3-methoxyaniline (TOOS) and 4-aminoantipyrine (4-AA) undergo oxidation condensation reaction, which develops a purple color to be detected.
For the reaction, a 96-well plate (polypropylene 96-well, manufactured by BMbio) was used, and the amount of the reaction mixture was 60 μL. As a reaction solution, solution A was used. […] The lysophospholipase D activity of autotaxin was evaluated as follows. […] The absorbance was measured at a wavelength of 548 nm, and used as a blank value. Then, solution C (50 μL) was added, and changes in the absorbance at wavelength 548 nm were measured over time. Solution C contained 100 mM tris (pH 8.0), 10 U/mL choline oxidase (manufactured by TOYOBO), 1 mM 4-AA (manufactured by DOJINDO), and 0.01% Triton-X. The absorbance of solution blank at the time point when solution B was added, which had been measured earlier, was subtracted from the absorbance at 15 min after addition of solution C, whereby true absorbance value was obtained. […]

[4] = target: T1, autotaxin; experiment: Biacore surface plasmon resonance, nucleic acid immobilized on SA chip, autotaxin as analyte; format: binding; details: Example 1, running text
Method: Biacore T100 manufactured by GE Healthcare is used for the measurement of binding strength. In one measurement method, an aptamer is first immobilized on a sensorchip. The immobilization amount is set to about 1500 RU. An autotaxin solution as an analyte prepared to 0.020 μM is injected by 20 μL, and binding of the autotaxin to the aptamer is detected.
All nucleic acids shown in SEQ ID NOs: 4-10 were produced by chemical synthesis. The binding activity of these nucleic acids to autotaxin was evaluated by the surface plasmon resonance method. For the measurement, Biacore T100 manufactured by GE Healthcare was used. The SA chips with streptavidin immobilized thereon were used as the sensor chips. Binding thereto was about 1500 RU of 16 nucleotide Poly dT of which biotin was bound to the 5′-terminus. The nucleic acids used as a ligand were added with Poly A (16 nucleotides) to the 3′-terminus, and were immobilized on SA chips by T-A annealing. The nucleic acids (20 μL) were injected at a flow rate of 20 μL/min to immobilize about 1500 RU of the nucleic acids. An autotaxin for analyte was prepared at 0.02 μM, and 20 μL thereof was injected. As a running buffer, solution A (mixed solution of 145 mM sodium chloride, 5.4 mM potassium chloride, 1.8 mM calcium chloride, 0.8 mM magnesium chloride, 20 mM Tris (pH 7.6), 0.05% Tween20) was used.

[5] = Table 4, >1.0 = no inhibitory activity up to 1.0 μM

Molecule	IC50 [1, 5]	IC50 ([1]; Table 2)	Binding activity by Biacore [2]	further results
27 (TACGCTCGGAACCGAGGCAATTGGTCAGCGTG; DNA, backbone and methylation of C not given here) [compound 27]	24 ± 10 nM	–	–	–
14 (GGGACGGAACCAGAATACTTTTGGTCTCCC; DNA, backbone and methylation of C not given here) [compound 14]	–	42 ± 5 nM	+ (not less than that)	–
29 (GCTGGCCGGAACCGTGCATATGGTCGCCAGC; DNA, backbone and methylation of C not given here) [compound 29]	11 ± 4 nM	–	–	–
13 (TGGACGGAACCAGAATACTTTTGGTCTCCA; DNA, backbone and methylation of C not given here) [compound 13]	–	110 ± 7 nM	+ (not less than that)	–
CCCCCCCCCCCCCC(=O)Nc1ccc(CP(=O)(O)O)cc1 [S32826]	–	–	–	LysoPLD inhibitory activity (in words) [3]: an inhibitory activity was not found; IC50 ([3]; autotaxin 2.1 nM, 14:0 LPC 2 mM, 37° C. 6 hr, mean of 2-3 measurements±standard deviation, >1000 = no inhibitory activity up to 1000 nM): > 1000 nM
15 (CCTGGACGGAACCAATACTTGGTCTCCAGG; DNA, backbone and methylation of C not given here) [compound 15]	–	990 ± 11 nM	− (not more than 10% of the aptamer shown in SEQ ID NO: 12 that showed the highest binding amount)	–
26 (CGCTGGGGTACGCTCGGAACCGAGGCAATTGGTCAGCG; DNA, backbone and methylation of C not given here) [compound 26]	440 ± 41 nM	–	–	–
28 (ACAGGCGCTGGCCGGAACCGTGCATATGGTC; DNA, backbone and methylation of C not given here) [compound 28]	> 1000 nM	–	–	–
11 (GTACTCATGGACGGAACCAGAATACTTTTGGTCTCCATTGAGTAC; chemistry not fully specified) [compound 11]	–	–	+ (not less than that)	–
16 (CTGGACGGAACCAGAATACTTTTGGTCTCCAG; DNA, backbone and methylation of C not given here) [compound 16]	–	18 ± 1 nM	+ (not less than that)	–
12 (CCTGGACGGAACCAGAATACTTTTGGTCTCCAGG; chemistry not fully specified) [compound 12]	–	–	+ (not less than that)	–
GTGGTCTAGCTGTACTCNNNNNNNNNNNNNNNNNNNNNNNNNNNNNNNNNNNNNNNNCCACAGTCAACGAGCTA [SEQ ID NO: 1(40N), reference compound]	–	–	–	binding to autotaxin (in words) [4]: not bind
